Measurements as given in patent publication US10780094B2, “Use of carbonic anhydrase inhibitors for treatment of neurological and psychiatric disorders” (New York University, priority 2016, dated 2020).

How the values were obtained:
Aβ42 and Aβ40-Q22 = molecular target: T1, Aβ42 and Aβ40-Q22 (Homo sapiens, UniProt P05067, E693Q); assay: Thioflavin T binding assay of Aβ aggregation; conditions: 100 or 300 μM MTZ; aggregation up to 3 days
T1 construct: purchased James I. Elliott at Yale University (custom chemical peptide synthesis)
Protocol: Binding of the different Aβ peptides to Thioflavin-T was monitored by fluorescence evaluation, as described (Fossati et al., 2010; Walsh et al., 1999). Briefly, after peptide aggregation at 50 μM concentration in culture media in the presence or absence of MTZ, 6 μl aliquots from each of the time-points were added to 184 μl of 50 mM Tris-HCl buffer, pH 8.5, and 10 μl of 0.1 mM Thioflavin-T (Sigma). Fluorescence was recorded for 300 s in a LS-50B luminescence spectrometer (Perkin Elmer, Waltham, Mass.) with excitation and emission wavelengths of 435 and 490 nm (slit width 10 nm), respectively, as described (Solito et al., 2009; Viana et al., 2009).

caspase 9 in glial cells = assay: Caspase-Glo 9 activity after Aβ challenge; assay type: cell-based, human
Protocol: Caspase 9 and caspase 3/7 activation was measured by luminescent assays (Caspase-Glo 9 and caspase-Glo 3/7, Promega, Madison, Wis.), in cells treated with the Aβ peptides in DMEM without FBS. Briefly, 10,000 cells/well were plated in 96 wells plates and incubated for 24 hours with the freshly solubilized Aβ peptides. Caspase-Glo reagent was added to the cell cultures resulting in cell lysis, followed by caspase cleavage of the substrate and generation of a luminescent signal produced by the luciferase reaction. After 40 minutes incubation, the amount of caspase activity was evaluated in a plate-reading luminometer (Synergy HT Multi-Mode Microplate Reader, Biotek, Winooski, Vt.) as described in (Fossati et al., 2012b). To inhibit non-specific background activity, the proteasome inhibitor MG-132 was added to the Caspase-Glo reagent before the experiment as indicated by the manufacturer. In all cases results are expressed as fold-change compared to untreated control cells.

[1] = system: mitochondria isolated from ECs (D3 cells); assay: Mitochondrial H2O2 production (Amplex Red) after Aβ challenge; assay type: cell-based, human; conditions: ATZ at lower concentrations than MTZ
Protocol: Cells were plated on 6-wells plates and treated with the peptides and/or drugs for the experimental times. Plates were centrifuged for 10 min at 1.000 RPM and washed twice with PBS 1×. After that, 500 μL of homogenization buffer (75 mM sucrose, 225 mM mannitol, 5 mM Tris-HCl pH=7.4, 1 mM PMSF and protease inhibitor cocktail) was added. Cells were scraped in this buffer, collected in glass tubes and grinded exactly 80 times with a pellet pestle, keeping everything always on ice. Cells were then centrifuged at 2.800 RPM for 5 min at 4° C. The supernatant was collected and centrifuged again at 2.800 RPM for 5 min at 4° C. The supernatant was again collected and centrifuged at 10.500 RPM for another 5 min at 4° C. After this, the supernatant was discarded and the pellet was re-suspended in 100 μL of homogenization buffer. The samples were centrifuged again at 10.500 RPM for 10 min at 4° C., the supernatant was discarded and the pellets (mitochondrial fractions) were re-suspended on 50 μL of homogenization buffer. […] After that, mitochondrial fractions containing equal amounts of mitochondrial proteins were placed on 96-wells microplate absorbance microtiter (ThermoFisher, Waltham, Mass., US) and the AmplexRed assay was ran, following the instructions provided by the manufacturer. Absorbance was measured by using a FlexStation (Molecular Devices, Sunnyvalem Calif., US).

Row | SMILES | Aβ fibrillization by Thioflavin T fluorescence (Aβ42 and Aβ40-Q22) | caspase 9 over-activation (caspase 9 in glial cells; 100 or 300 μM MTZ, 10 μM Aβ42, 24 hours) | caspase 9 activity, drug alone (caspase 9 in glial cells; MTZ alone in absence of Aβ) | inhibition of H2O2 production, compared with MTZ [1]
1 | CC(=O)/N=c1/sc(S(N)(=O)=O)nn1C [MTZ, methazolamide] | no significant difference in fibrillization | significantly reduced | did not have any effect | 
2 | CC(=O)Nc1nnc(S(N)(=O)=O)s1 [ATZ, acetazolamide] |  |  |  | more dramatic effect on the inhibition of H2O2 production
